A word on the IC50: it is the concentration needed to halve the response being measured. The low end stands for inhibition by little substance, the high end for a need for much substance.

Structures are written as SMILES.

Sequence of human P2X3 receptor (P56373 whole entry): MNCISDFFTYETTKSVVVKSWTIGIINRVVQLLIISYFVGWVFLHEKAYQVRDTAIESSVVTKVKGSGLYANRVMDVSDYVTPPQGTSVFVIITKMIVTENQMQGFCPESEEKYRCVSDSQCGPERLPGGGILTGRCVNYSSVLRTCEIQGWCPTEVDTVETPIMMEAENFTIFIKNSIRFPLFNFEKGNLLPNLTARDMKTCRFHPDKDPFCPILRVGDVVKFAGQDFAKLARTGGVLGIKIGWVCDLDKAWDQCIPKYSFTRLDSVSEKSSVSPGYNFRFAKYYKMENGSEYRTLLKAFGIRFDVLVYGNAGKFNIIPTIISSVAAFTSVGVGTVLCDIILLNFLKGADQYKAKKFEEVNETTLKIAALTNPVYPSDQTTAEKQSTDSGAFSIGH

The target in the assay is human P2X3 receptor (Homo sapiens (Human), UniProt P56373). The experiment in a line: Evaluation of human P2X3 receptor inhibitory activity (Test Example 1-1, FDSS 3000, 96-well, 50 nM ATP). The settings on record: human P2X3 receptor in C6BU-1 cells; Test Example 1-1 (compounds I-001 to I-300). In kind it is cell-based. In short, it runs like this:
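C6BU-1 cells stably expressing human P2X3, loaded with 4 μM Fluo-3-AM (pH 7.5), preincubated 5 min with compound before 50 nM ATP challenge; fluorescence followed 4 min on FDSS 3000. IC50 derived from peak/baseline fluorescence ratio, no-compound as 0% and buffer-instead-of-ATP as 100% inhibition.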
`CCC(=O)Nc1c[nH]/c(=N\c2ccc(Oc3ccc(C(=O)OC)nc3)cc2)n(Cc2ccc(Cl)cc2)c1=O` [Compound I-091]: the IC50 was determined as 3 nM.
The result for `CCC(=O)Nc1c[nH]/c(=N\c2ccc(Oc3cccc(C#N)n3)cc2)n(Cc2ccc(Cl)cc2)c1=O` [Compound I-006] reads 5 nM; that for `CCOC(=O)Cc1c[nH]/c(=N\c2ccc3oc(CC)c(C)c3c2)n(Cc2ccc(Cl)cc2)c1=O` [Compound I-072], 228 nM.
To `NC(=O)c1c[nH]/c(=N\c2ccc(Oc3ccon3)cc2)n(Cc2ccc(Cl)cc2)c1=O` [Compound I-100] belongs 32 nM.
The result for `CCN/C(=N\C#N)Nc1c[nH]/c(=N\c2ccc(Oc3ccon3)cc2)n(Cc2ccc(Cl)cc2)c1=O` [Compound I-251] reads 118 nM; that for `O=C(NC1CCOCC1)c1cn(Cc2ccccc2)c(Nc2ccc(Oc3cccc(F)n3)cc2)nc1=O` [Compound I-280], 139 nM; that for `O=C(Nc1cnc(Nc2ccc3nc(C(F)F)sc3c2)n(Cc2ccc(Cl)cc2)c1=O)C1CCOCC1` [Compound I-300], 15 nM.
For the compound `O=C(Nc1c[nH]/c(=N\c2ccc(Oc3ccon3)cc2)n(Cc2ccc(Cl)cc2)c1=O)c1ccon1` [Compound I-226], the midpoint of inhibition, the IC50, lay at 208 nM.
The result for `Cc1cc(C(=O)Nc2c[nH]/c(=N\c3ccc(Oc4ccon4)cc3)n(Cc3ccc(Cl)cc3)c2=O)on1` [Compound I-255] reads 147 nM; that for `O=C(Nc1c[nH]/c(=N\c2ccc(Oc3ccon3)cc2)n(Cc2ccc(Cl)cc2)c1=O)c1ccccn1` [Compound I-254], 868 nM.
With `CCc1oc2ccc(Nc3ncc(C(=O)NCCO)c(=O)n3Cc3ccc(Cl)cc3)cc2c1C` [Compound I-032], the IC50 was found to be 34 nM.
To `C[C@@H](Cn1c(=O)cc(Nc2ccc(Oc3ccon3)cc2)n(Cc2ccc(Cl)cc2)c1=O)C(=O)O` [Compound I-121] belongs 26 nM; to `COC(=O)[C@@H](C)Cn1c(=O)cc(Nc2ccc(Oc3cccc(F)n3)cc2)n(Cc2ccc(Cl)cc2)c1=O` [Compound I-116], 6 nM.
The compound `O=C(Nc1c[nH]/c(=N\c2ccc(Oc3ccon3)cc2)n(Cc2ccc(Cl)cc2)c1=O)C1CCOC1` (centres unmarked) [Compound I-213] returned an IC50 of 27 nM.
To `CCOC(=O)c1c[nH]/c(=N\c2ccc(Oc3cccc(C#N)n3)cc2)n(Cc2ccc(Cl)cc2)c1=O` [Compound I-153] belongs 21 nM.
To `O=C(O)c1c[nH]/c(=N\c2ccc(Oc3ncccc3F)cc2)n(Cc2ccc(Cl)cc2)c1=O` [Compound I-108] belongs 440 nM; to `CCC(=O)Nc1c[nH]/c(=N\c2ccc(Oc3ccc(CO)nn3)cc2)n(Cc2ccc(Cl)cc2)c1=O` [Compound I-089], 17 nM.
The result for `Cc1cc(Oc2ccc(/N=c3\[nH]cc(NC(=O)C4CCOCC4)c(=O)n3Cc3ccc(Cl)cc3)cc2F)no1` [Compound I-249] reads 6 nM; that for `NC(=O)c1cccc(Oc2ccc(Nc3nc(=O)c(C(=O)NC4CCOCC4)cn3Cc3ccc(Cl)cc3)cc2)n1` [Compound I-217], 5 nM.
As to `CCCn1c(=O)cc(Nc2ccc(Oc3cnc(C#N)nc3)cn2)n(Cc2ccc(Cl)cc2)c1=O` [Compound I-196], the half-inhibitory concentration (IC50) amounted to 37 nM.
The result for `CCc1oc2ccc(/N=c3\[nH]cc(NC(=O)C4CCOCC4)c(=O)n3Cc3ccc(Cl)cc3)cc2c1C` [Compound I-030, 1-(4-chlorobenzyl)-2-(2-ethyl-3-methylbenzofuran-5-ylamino)-5-(tetrahydro-2H-pyran-4-ylcarbonylamino)pyrimidin-6(1H)-one] reads 5 nM; that for `CCc1oc2ccc(Nc3nc(=O)c(C(=O)O)cn3Cc3ccc(Cl)cc3)cc2c1C` [Compound I-017], 401 nM; that for `CCC(=O)Nc1c[nH]/c(=N\c2ccc(Oc3ccnc(C#N)c3)cc2)n(Cc2ccc(Cl)cn2)c1=O` [Compound I-276], 165 nM.
The result for `Cc1cncc(Oc2ccc(Nc3ncc(NC(=O)C4CCOCC4)c(=O)n3Cc3ccc(Cl)cc3)cc2)n1` [Compound I-136] reads 2 nM; that for `O=C(NC1CCOCC1)c1cn(Cc2ccc(Cl)cc2)c(Nc2ccc(Oc3ccc(F)cn3)cc2)nc1=O` [Compound I-158], 11 nM; that for `CCC(=O)Nc1c[nH]/c(=N\c2ccc(Oc3ccc(CO)nc3)cc2)n(Cc2ccc(Cl)cc2)c1=O` [Compound I-118], 17 nM.
The result for `CCc1oc2ccc(/N=c3\[nH]cc(CC(N)=O)c(=O)n3Cc3ccc(Cl)cc3)cc2c1C` [Compound I-084] reads 103 nM; that for `O=c1c(-c2ccccn2)c[nH]/c(=N\c2ccc(Oc3ccon3)cc2)n1Cc1ccc(Cl)cc1` [Compound I-272], 211 nM.
On to `Cc1nsc(Oc2ccc(/N=c3\[nH]cc(NC(=O)C4CCOCC4)c(=O)n3Cc3ccc(Cl)cc3)cc2)n1` [Compound I-225], for which the IC50 is 6 nM.
The compound `CCn1c(=O)cc(Nc2ccc(Oc3cccc(C#N)n3)cc2)n(Cc2ccc(Cl)cc2)c1=O` [Compound I-009] registered an IC50 of 5 nM.
The compound `Cc1noc(-c2cn(Cc3ccc(Cl)cc3)/c(=N/c3ccc(Oc4cccc(F)n4)cc3)[nH]c2=O)n1` [Compound I-190, 1-(4-chlorobenzyl)-2-[4-(6-fluoro-2-pyridyloxy)phenylamino]-5-(3-methyl-1,2,4-oxadiazol-5-yl)pyrimidin-4(1H)-one] gave an IC50 of 6 nM.
`CCc1cn(Cc2ccc(Cl)cc2)c(Nc2ccc(Oc3ncc(C(=O)O)s3)cc2)nc1=O` [Compound I-154] gave an IC50 of 317 nM.
To `O=C(NC1CCOCC1)c1cn(Cc2ccc(Cl)cc2)c(Nc2ccc(Oc3nccs3)cc2)nc1=O` [Compound I-161] belongs 22 nM; to `O=C(Nc1c[nH]/c(=N\c2ccc(Oc3ccon3)cc2)n(Cc2ccc(Cl)cc2)c1=O)c1cn[nH]c1` [Compound I-235], 225 nM; to `O=C(O)c1c[nH]/c(=N\c2ccc(Oc3cccc(F)n3)cc2)n(Cc2ccc(Cl)cc2)c1=O` [Compound I-029], 236 nM.
`Cc1nsc(Oc2ccc(/N=c3\[nH]cc(C(=O)N(C)C)c(=O)n3Cc3ccc(Cl)cc3)cc2)n1` [Compound I-221] had a 50% inhibitory concentration (IC50) of 65 nM.
To `CCC(=O)Nc1c[nH]/c(=N\c2ccc(Oc3ccc(C(=O)O)nc3)cc2)n(Cc2ccc(Cl)cc2)c1=O` [Compound I-092] belongs 19 nM; to `O=C(Nc1cnc(Nc2ccc(Oc3ncccc3F)cc2)n(Cc2ccc(Cl)cc2)c1=O)C1CCOCC1` [Compound I-132], 2 nM.
As to `N#Cc1cccc(Oc2ccc(Nc3nc(=O)c(C(=O)NC4CCOCC4)cn3Cc3ccc(Cl)cc3)cc2)n1` [Compound I-216], the IC50 is 6 nM.
To `C[C@@H](Cn1c(=O)cc(Nc2ccc(Oc3ccccc3)cc2)n(Cc2ccc(Cl)cc2)c1=O)C(=O)O` [Compound I-117] belongs 26 nM.
As to `C/C(O)=C(/C#N)C(=O)Nc1c[nH]/c(=N\c2ccc(Oc3ccon3)cc2)n(Cc2ccc(Cl)cc2)c1=O` [Compound I-242], the 50% inhibitory concentration (IC50) stood at 6 nM.
To `CCn1c(=O)cc(Nc2ccc(Oc3cccc(C#N)c3)c(C)n2)n(Cc2ccc(Cl)cc2)c1=O` [Compound I-246] belongs 71 nM; to `O=C(NC1CCOCC1)c1cn(Cc2cccc(F)c2)c(Nc2ccc(Oc3cccc(F)n3)cc2)nc1=O` [Compound I-283], 226 nM; to `Cc1cnc(-c2c[nH]/c(=N\c3ccc(Oc4cccc(C(N)=O)n4)cc3)n(Cc3ccc(Cl)cc3)c2=O)o1` [Compound I-288], 15 nM.

(Values after patent US9550763B2, “Heterocyclic ring and carbocyclic derivative” (Shionogi & Co., Ltd., priority 2012, dated 2017).)
